Experimental data from US11142796B2, “MIR-18B for use as a marker of cancer progression and target for therapies to treat cancer” (SUTTER WEST BAY HOSPITALS, priority 2012, dated 2021).
“Also recorded” adds a separate entry of the source.

How the values were obtained:
miR-18b expression = miR-18b expression by miR qRT-PCR in drug-treated melanoma cells; type: cell-based, human
Excerpt: The DO4, WM3211, 1205-Lu, C8161.9, WM278 and Lox melanoma cell lines were obtained and propagated as described in Dar et al., J Biol Chem 286:16606-14 (2011). Normal human melanocytes (HEM) were purchased from Lifeline cell technology and grown in LL-0027 media (Lifeline cell technology, Walkersville Md.). Plasmids miRNASelect™ pEP-miR Null control vector (pEP Null), miRNASelect™ pEP-hsa-mir-18b expression vector (pEP miR-18b) (Cell Biolabs Inc, San Diego Calif.) were purchased. TaqMan probes for hsa-miR-18b and negative control pre-miR (cont. miR) were purchased from Applied Biosystems (Foster City, Calif.). Sub-confluent cells (60-70% confluent) were treated with 5-AZA-2′-deoxycytidine (5AZA) (Sigma Aldrich, St. Louis Mo.) dissolved in dimethyl-sulfoxide. Cells treated with vehicle served as control. Transient transfections were carried out by Lipofectamine-2000 (Invitrogen Life Technologies, Carlsbad, Calif.) following the manufacturer's protocol.
Mature miRNAs and other mRNAs were assayed using the TaqMan MicroRNA Assays and Gene Expression Assays (Applied Biosystems), respectively, as previously described in Dar et al., J Biol Chem 286:16606-14 (2011).

3′UTR of MDM2 = experiment: Luciferase reporter assay with MDM2-3′UTR; type: cell-based, human
Excerpt: The 3′-UTR region of MDM2 containing target site sequences complementary to the seed sequence of miR-18b were cloned downstream of the luciferase gene in the pMIR-REPORT luciferase vector (Ambion, Cambridge Mass.), and the resultant vectors were named MDM2-3′UTR. Mutated 3′UTR sequences of MDM2 complementary to miR-18b were cloned in the same vector and the resultant vectors named MDM2-Mut 3′UTR. For reporter assays, cells were transiently transfected with wild-type or mutant reporter plasmid and miR-18b. Firefly luciferase activities were measured by using the Dual Luciferase Assay (Promega, Madison, Wis.) 48 hr after transfection and the results were normalized with Renilla luciferase. Each reporter plasmid was transfected at least three times (on different days) and each sample was assayed in triplicate.

chromatin modifications = experiment: Chromatin immunoprecipitation analysis after miR-18b overexpression; type: cell-based, human
Description: Chromatin immunoprecipitation analysis was performed using the EZ-ChIP kit (Upstate Biotechnology, Charlottesville, Va.) according to the manufacturer's directions and as described in Majid et al., Carcinogenesis 30: 662-70 (2009). Antibodies used in the immunoprecipitations were purchased from Upstate Biotechnology and Ambion (Austin, Tex.) and were specific for acetyl histone H3 (06-599), acetyl histone H4 (06-866), dimethyl-histone H3 lysine 4 (07-030), trimethyl-histone H3 lysine 4(07-473), dimethyl-histone H3 lysine 9 (07-441) and trimethyl-histone H3 lysine 9 (ab8898). The immunoprecipitated DNA was eluted in a total volume of 50 μl and 2 μl were used for PCR.

1205-Lu cells [1] = experiment: Cell cycle analysis (flow cytometry), 1205-Lu; type: cell-based, human
Description: (§1) Cell viability, colony formation and flow cytometry analysis were performed as described previously in Dar et al., J Biol Chem 286:16606-14 (2011); and Dar et al., J Invest Dermatol 130:2071-9 (2010)).

1205-Lu melanoma cells [2] = experiment: Invasion assay (matrigel-coated boyden chamber); type: cell-based, human; conditions: miR-18b over-expression; vs cont.miR
Description: (§2) For 1205-Lu cells boyden chamber inserts were coated with 15 μl matrigel at 6 mg/ml protein. For migration assay boyden chamber inserts were not coated and cells were directly added to them.

LOX human melanoma cells [3] = experiment: Cell cycle analysis, LOX; type: cell-based; conditions: LOX cells transfected with miR-18b
Description: as §1

1205-Lu cells [4] = experiment: Apoptosis assay, 1205-Lu; type: cell-based, human
Description: as §1

1205-Lu melanoma cells [5] = experiment: Migration assay (boyden chamber); type: cell-based, human; conditions: miR-18b over-expression; vs cont.miR
Description: as §2

LOX human melanoma cells [6] = experiment: Colony formation, LOX; type: cell-based; conditions: LOX cells transfected with miR-18b
Description: as §1

1205-Lu cells [7] = experiment: Colony formation assay, 1205-Lu; type: cell-based, human
Description: as §1

[8] = system: MDM2 (and the p53 pathway); experiment: Western blot analysis of MDM2 and p53 pathway proteins; type: cell-based, human
Description: (§3) Cell lysates were prepared in PBS containing 1×Halt protease inhibitor cocktail and 1×Halt phosphatase inhibitor cocktail (Pierce, Rockford, Ill.) centrifuged at 3500 r.p.m. for 10 min at 4° C. Proteins (10-15 ug) from each sample were subjected to SDS/polyacrylamide gel electrophoresis (PAGE) and transferred onto a nitrocellulose membrane. Target proteins were detected by using specific antibodies against MDM2, p53, p21, BCL-2 and GAPDH (Santa Cruz Biotechnology, Santa Cruz, Calif.), and PUMA, BCL-XL (Cell Signaling Technology, Danvers, Mass.).

[9] = system: E-cadherin, vimentin, N-cadherin and slug; experiment: EMT markers by immunofluorescence and Western blot; type: cell-based, human; conditions: miR-18b overexpression in 1205-Lu
Description: as §3
1205-Lu cells were plated in 8-well plate chamber. Immunofluorescence assay was performed as previously described in Dar et al., Oncogene 28: 866-75 (2009). N-cadherin, vimentin, slug and E-cadherin antibodies (Cell signaling) were used in the assay.

LOX human melanoma cells [10] = experiment: Apoptosis assay, LOX; type: cell-based; conditions: LOX cells transfected with miR-18b
Description: as §1

1205-Lu cells [11] = experiment: Cell proliferation / viability, 1205-Lu; type: cell-based, human
Description: as §1

LOX human melanoma cells [12] = experiment: Cell proliferation, LOX; type: cell-based; conditions: LOX cells transfected with miR-18b
Description: as §1

[13] = system: C8161.9 melanoma cell lines; experiment: Cell survival, MDM2 and p53 expression in mutant p53 cells; type: cell-based, human; conditions: C8161.9 cells harboring mutant p53
Description: as §1, §3

1205-Lu cells [14] = experiment: Subcutaneous tumor growth of 1205-Lu cells stably expressing miR-18b; type: in vivo, nude mice
Description: 1205-Lu cells were transfected with pEP Null or pEP miR-18b vectors (Cellbiolabs, San Diego Calif.) and selected with puromycin (1 μg/mL). For in-vivo studies as described previously in Dar et al., J Invest Dermatol 130:2071-9 (2010), 1×10^6 cells were injected into nude mice subcutaneously and tumor growth was followed for 24 days. All animal care was in accordance with the institutional guidelines.

[15] = stable expression of miR-18b, vs control vector
[16] = transient transfection, vs cont.miR
[17] = 1205-Lu co-transfection with empty vector or MDM2-expressing vector
[18] = 1205-Lu stably overexpressing miR-18b
[19] = transient miR-18b overexpression

## Nc1ncn([C@H]2C[C@H](O)[C@@H](CO)O2)c(=O)n1 [5AZA, 5-AZA-2′-deoxycytidine]
miR-18b expression; five melanoma cell lines (C8161.9, LOX, 1205-Lu, DO4, WM278), 5AZA 5 μM, vs vehicle
  miR-18b expression: significant upregulation

## N.N.[Cl][Pt][Cl] [cisplatin]
miR-18b expression; 1205-Lu cells, 2 nM cisplatin for 48 hr, vs vehicle-treated cells
  miR-18b expression: significantly upregulated
miR-18b expression; 1205-Lu cells, 2 nM cisplatin for 48 hr, vs vehicle-treated cells, listed as Cisplatin
  miR-18b expression: induced expression of miR-18b

## miR-18b: microRNA, mature miR-18b-5p UAAGGUGCAUCUAGUGCAGUUAG (SEQ ID NO:1); transfected or stably expressed from pEP-hsa-mir-18b expression vector (listed as Homo sapiens)
3′UTR of MDM2; MDM2-Mut 3′UTR, 1205-Lu and LOX cells
  reporter activity, mutant 3′UTR: no effect
3′UTR of MDM2; transient co-transfection into 1205-Lu and LOX cells, 48 hr, vs control vector
  reporter expression, MDM2-3′UTR construct: significant decrease
Chromatin modifications
  active chromatin modifications (acetylated histones H3, H4 and H3 di-methylated lysine 4): enrichment
  repressive chromatin modifications (2H3K9 and 3H3K9): suppression
1205-Lu cells [1]; [15]
  cells in S-phase: significant decreases
1205-Lu cells [1]; transient overexpression, cont.miR 15.5%, p<0.02
  cells in S-phase: 8.05%
1205-Lu melanoma cells [2]
  invasiveness: significantly suppressed
LOX human melanoma cells [3]
  S-phase: significant decrease
1205-Lu cells [4]; stable expression of miR-18b
  apoptotic index: significant increase
1205-Lu cells [4]; transient overexpression, cont.miR 2.87%, p<0.01
  apoptosis: 11.30%
1205-Lu melanoma cells [5]
  migratory ability: significantly suppressed
LOX human melanoma cells [6]
  colony formation: significant decrease
1205-Lu cells [7]; [15]
  colony formation: significant decreases
1205-Lu cells [7]; [16]
  colony formation ability: low colony formation ability
[8]; [17]
  gene expression (MDM2, p53 pathway): suppression of MDM2, activation of the p53 pathway
[8]; [18]
  MDM2 expression: significantly downregulated
  expression of p53 and PUMA: concomitant increase
[8]; following miR-18b overexpression
  p14ARF expression: unchanged
[8]; [19]
  MDM2 at the protein level: significantly suppressed
  anti-apoptotic genes BCL2 and BCL-XL: downregulation
  pro-apoptotic genes p53 and PUMA: concomitant upregulation
[9]
  epithelial biomarker E-cadherin: significant upregulation
  mesenchymal markers vimentin, N-cadherin and slug: reduced
LOX human melanoma cells [10]
  apoptosis: increase
1205-Lu cells [11]; [17]
  melanoma cell survival: suppressed melanoma cell survival
1205-Lu cells [11]; 1205-Lu transfected with miR-18b vs Neg-miR, treated with dabrafenib, 48 hrs
  cell proliferation with BRAF inhibitor: sensitized melanoma cell lines to BRAF specific inhibitor; also recorded: additive effect
1205-Lu cells [11]; melanoma cells treated with miR-18b
  sensitivity to cisplatin cytotoxicity: enhanced sensitivity
1205-Lu cells [11]; [15]
  cell proliferation: significantly suppressed
1205-Lu cells [11]; [16]
  cell proliferation over time: significantly decreased
LOX human melanoma cells [12]
  cell proliferation: significant decrease
[13]
  cell survival, MDM2 and p53 expression levels: no effect
1205-Lu cells [14]; subcutaneous inoculation into nude mice, followed for 24 days, vs control vector cells
  tumor growth in vivo: significantly suppressed
1205-Lu cells [14]; subcutaneous tumors, vs control tumors
  MDM2 at the protein level in tumors: suppressed
